Data: patent publication US10695406B2, “Modulation of cellular stress using a B-cell oxidative and/or endoplasmic reticulum stress inhibitor and a targeting agent” (THE UNIVERSITY OF QUEENSLAND, priority 2014, dated 2020)

Columns and labels:
MIN6N8 murine β-cells = test: ER stress (ERAI reporter of Xbp1-splicing / Xbp1 splicing) in MIN6N8 β-cells; assay type: cell-based
Experimental: MIN6N8 cells are maintained in line with standard protocols. Cells are transfected with either the ERAI reporter plasmid (F-XBP1ΔDBD-Venus), or the ATF6-GFP plasmid (ADGENE), using LIPFECTAMINE 2000 according to the manufacturer's instructions.
On induction of ER stress, splicing of […] mRNA by IRE1a results in the translation of Venus, but not an active form of XBP1. Fluorescence was measured (excitation: 485 nm; emission: 520 nm) using the POLARstar Omega plate reader and cells were treated 48 h after transfection. The results are normalized with Gapdh expression as fold of vehicle-treated control (Con) cells.
(§1) Activation of ATF6 was assessed as follows: the area in pixels per square millimeter co-stained ATF6 and DAPI (blue and green), and total ATF6 staining (green) was determined in 5 fields of view for each section (n=6 for each condition) using IMAGEJ software version 1.45s. Data are presented as the percentage of ATF6 and DAPI co-fluorescence to the total ATF6 fluorescence. Phosphorylation of Ser-51 of eiF2 α was determined by an AlphaScreen assay as per the manufacturer's instructions (PERKIN-ELMER). The Griess reagent method was performed according to the manufacturer's instructions (MOLECULAR PROBES) to assess the intracellular levels of nitric oxide. 5-(and -6-)-carboxy-2,7-dichlorofluorescein diacetate (DCFDA) assay was used to determine the intracellular levels of H2O2 as previously described (Sakon et al., 2003). Cells were treated with glucose or recombinant cytokines at the concentrations indicated in the figure legends, or with 5 μM thapsigargin (SIGMA-ALDRICH) or 10 μg/mL tunicamycin (SIGMA-ALDRICH) or 0.1-0.5 mM Palmitate (SIGMA-ALDRICH) for the times indicated in the legends. ROS was […] using the dihydroethidium (DHE) fluorescent cell-permeable probe (SIGMA-ALDRICH). MIN6N8 cells plated at 2×10^6/mL were incubated with 3 μM DHE and subsequently treated with DMSO (control), 50 ng/mL IL-23 for 30 minutes±[…] IL-22 at the same time or 30 minutes prior to IL-23.
To inhibit transcription factors the following specific inhibitors (and concentrations) were used:
MIN6N8 cells were exposed to a panel of cytokines to determine the effect of each cytokine on ER stress. ER stress was measured using the above-described method. Specifically, the cells were exposed to either a 24 hour treatment of any one of […] glucose (hi glucose), 10 μM H2O2, 0.5 mM palmitic acid or 50 ng/mL cytokines; or a 6 hour treatment with 10 μg/mL tunicamycin or 5 μM thapsigargin.
Experiments to assess ER and/or oxidative stress, and methods of qRT-PCT and/or quantifying gene expression were performed as described for Example 1. Xbp1 splicing is assessed by qRT-PCR, with normalization versus Gapdh, and expression presented as fold of vehicle-treated control cells.

Murine MIN6N8 cells = test: ERAI-sXBP1 reporter ER stress in MIN6N8 cells with 0.5 mM palmitate; assay type: cell-based; settings: 15.4 nM, 24 hours, no palmitate
Experimental: Cell culture: Murine MIN6N8 cells were tested negative for mycoplasma. Cells were routinely cultured in phenol-red free DMEM (Life Technologies) containing 25 mM glucose (3.4 g/L sodium bicarbonate, 50 U/mL penicillin and streptomycin, 71.5 μM β-mercaptoethanol and 10% heat inactivated fetal bovine serum) and transferred to DMEM as above with 5.5 mM glucose 48 h prior to experimentation. Human LS174T cells were cultured in DMEM containing 10% heat-inactivated fetal bovine serum, 50 U mL^−1 penicillin and streptomycin.
ER Stress Measurement: MIN6N8 cells were transfected with the ERAI reporter plasmid (F-XBP1ΔDBD-venus, using Lipofectamine 2000 according to the manufacturer's instructions. For ERAI there was negligible fluorescence in the absence of ER stressors, but upon induction of ER stress, splicing of XBP1 mRNA by IRE1a results in the translation of Venus but not an active form of XBP1. Fluorescence was measured (excitation: 485 nm; emission: 520 nm) using a POLARstar Omega plate reader and cells were treated 48 h after transfection. […] After 24 h, ERAI-sXBP1 GFP reporter fluorescence was measured.

[1] = Clearance of IL-22 and IL-22 fusion proteins from serum; assay type: in vivo, C57BL/6 mice; settings: after administration to mice
Experimental: Targeting to IL-22 to pancreas: Non-obese male C57BL/6 at 6-8 weeks of age. Each IL-22-GLP-1R ligand fusion protein or hIL-22 was administered i.p. at 256 ng/g of IL-22 and the molar equivalents for the individual fusion proteins (n=3 per regimen). IL-22-ScaB1 was administered at […]. Control mice received a PBS control i.p. injection only.
Serum concentrations of IL-22 and the IL-22-GLP-1R ligand fusion proteins were determined using a human IL-22 double-determinant ELISA (Biolegend; 434505) against a standard curve for the individual fusion proteins.

MIN6N8 cells = test: ROS and NO (DHE, DCFDA, Griess assay) in MIN6N8 cells; assay type: cell-based, murine; settings: for IL-23 induced oxidation of dihydroethidium (DHE): 50 ng/mL
Experimental: as §1
To determine whether IL-22 was sufficient to prevent the increase in oxidative stress caused by known stressors, for example dihydroethidium (DHE), MIN6N8 cells were exposed to 50 ng/mL IL-23 for 30 minutes±50 ng/mL IL-22 at the same time, or 30 minutes prior to the IL-23 treatment. Superoxide generation was measured using DHE, which fluoresces red and binds DNA after oxidation. Time-lapse imaging (3 frames/min for 30 minutes) was utilized to determine the formation of superoxide (DHE-conversion/fluorescence) in cells after treatment. DAPI fluorescence was captured to visualize nuclei.
The concentration of ROS and NO in MIN6N8 cells treated with 16.6 mM glucose (high glucose), 10 μM H2O2, 0.5 mM palmitic acid or 50 ng/mL cytokines±50 ng/mL IL-22 either at the same time, or 30 minutes prior to the stressor treatment.

## IL-22: interleukin-22; recombinant murine IL-22 (R&D SYSTEMS) in the mouse experiments
MIN6N8 murine β-cells; 5 μM thapsigargin ± IL-22, 6 hours
  UPR activation when ER stress is induced with thapsigargin: increases UPR activation
MIN6N8 murine β-cells; 0.1-0.5 mM palmitic acid ± IL-22, 24 hours
  ER stress induced with palmitic acid: inhibits ER stress
MIN6N8 murine β-cells; MIN6 β-cells
  lowest concentration with efficacy as suppressor of ER stress: around 5 ng/mL
MIN6N8 murine β-cells; no stressor
  UPR activation by the cytokine alone: does not appear to activate the UPR
MIN6N8 murine β-cells; pair-wise combinations of cytokines
  inhibition of ER stress initiated by cytokines or tunicamycin: inhibit ER stress
Murine MIN6N8 cells
  ER stress caused by the protein alone: did not cause ER stress
[1]
  time to almost complete clearance from serum: ≤ 60 min
MIN6N8 cells; 30-minute pre-exposure
  IL-23 induced oxidation of dihydroethidium (DHE): completely prevented DHE oxidation
MIN6N8 cells; concomitant exposure
  IL-23 induced oxidation of dihydroethidium (DHE): reduced the degree of oxidation and the number of cells affected
MIN6N8 cells; unstressed cells
  basal NO production: decreased basal NO production
MIN6N8 cells; β-cells exposed to inflammatory cytokines, FFA, tunicamycin or H2O2
  production/accumulation of ROS and NO: represses the production/accumulation of ROS and NO
